Test results taken from ChEMBL document CHEMBL1201862, “PubChem BioAssay data set” (2004).
Active and inactive are the calls of the source.

How the values were obtained:
[1] = biological target: T1, Heat shock factor protein 1 (Mus musculus, UniProt P38532); experiment: enhancement of HSF1-driven luciferase signal – cell-based, NIH3T3, luminescence, dose retest, confirmation (AID 435004); type: functional;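 note: stress induced by proteasome inhibitor MG132 added 30 min after compound; luciferase reporter driven by HSF1 response element in NIH3T3 cells; actives raise luminescence as potentiators of the MG132 stress response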
T1 sequence (P38532 whole entry): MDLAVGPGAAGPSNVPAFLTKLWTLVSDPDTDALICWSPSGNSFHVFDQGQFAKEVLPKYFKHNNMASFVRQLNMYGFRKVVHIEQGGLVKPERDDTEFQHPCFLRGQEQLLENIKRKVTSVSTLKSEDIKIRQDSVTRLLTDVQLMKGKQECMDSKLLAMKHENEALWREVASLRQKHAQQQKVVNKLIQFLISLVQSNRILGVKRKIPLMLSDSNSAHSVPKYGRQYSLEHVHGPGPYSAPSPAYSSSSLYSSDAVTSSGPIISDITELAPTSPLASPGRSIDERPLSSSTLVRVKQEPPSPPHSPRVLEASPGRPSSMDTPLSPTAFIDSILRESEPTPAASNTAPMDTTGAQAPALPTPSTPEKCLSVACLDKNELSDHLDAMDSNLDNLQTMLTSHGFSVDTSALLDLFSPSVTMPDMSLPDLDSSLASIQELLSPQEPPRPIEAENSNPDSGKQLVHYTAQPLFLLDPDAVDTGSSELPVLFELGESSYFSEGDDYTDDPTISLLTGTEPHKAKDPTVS

[2] = alpha-synuclein stem-loop luciferase translation blockers – H4 neuroglioma cells, luminescence, confirmation (AID 1988); type: functional, cell-based
[3] = Luminescence Cell-Based Dose Response HTS to Identify Inhibitors of 5'UTR Stem-Loop Driven Prion Protein mRNA Translation in H4 Neuroglioblastoma Cells. [Related pubchem assays: 1827 (Project Summary), 1813 (Primary HTS)]; type: functional
[4] = luciferase reporter signal suppression in cells – H4 neuroglioma cells, luminescence, dose response (AID 1990); type: functional, cell-based
[5] = biological target: T2, Polyadenylate-binding protein 1 (Homo sapiens, UniProt P11940); experiment: MLLE domain peptide-binding blockers, IC50 – biochemical, fluorescence polarization, FITC-PAM2 peptide, dose response (AID 602259); type: functional; conditions: read-out: IC50_Mean
[6] = biological target: T2, Polyadenylate-binding protein 1; experiment: MLLE binding blockers, Cy5 peptide tracer – biochemical, fluorescence polarization, Cy5-PAM2 peptide, secondary, miRNA deadenylation inhibitor project, dose response (AID 602260); type: functional; conditions: read-out: IC50_Mean
[7] = biological target: T3, Zinc finger protein mex-5 (Caenorhabditis elegans, UniProt Q9XUB2); experiment: potency of MEX-5 RNA-binding blockers – biochemical, C. elegans, fluorescence polarization, dose response (AID 1960)
T3 sequence (Q9XUB2 whole entry): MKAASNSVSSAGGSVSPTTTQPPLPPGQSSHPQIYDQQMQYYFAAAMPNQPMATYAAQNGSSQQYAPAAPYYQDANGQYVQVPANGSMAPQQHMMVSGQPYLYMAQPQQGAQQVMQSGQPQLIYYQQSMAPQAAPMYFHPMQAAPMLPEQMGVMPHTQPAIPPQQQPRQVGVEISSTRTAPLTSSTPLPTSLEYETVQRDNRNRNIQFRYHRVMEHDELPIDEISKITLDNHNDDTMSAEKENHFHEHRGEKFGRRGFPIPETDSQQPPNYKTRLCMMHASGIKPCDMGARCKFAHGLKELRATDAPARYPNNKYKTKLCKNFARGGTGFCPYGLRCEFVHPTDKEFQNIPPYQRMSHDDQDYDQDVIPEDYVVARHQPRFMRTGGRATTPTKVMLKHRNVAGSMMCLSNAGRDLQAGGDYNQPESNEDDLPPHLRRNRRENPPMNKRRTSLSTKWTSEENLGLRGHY

[8] = biological target: T4, RNA-binding protein pos-1 (Caenorhabditis elegans, UniProt G5EF15); experiment: disruptors of C. elegans POS-1 RNA interaction – biochemical, fluorescence polarization, dose response (AID 1964);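 note: purified POS-1 fused to maltose binding protein made in E. coli; potency of compounds blocking POS-1 binding to fluorescent RNA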
T4 sequence (G5EF15 whole entry): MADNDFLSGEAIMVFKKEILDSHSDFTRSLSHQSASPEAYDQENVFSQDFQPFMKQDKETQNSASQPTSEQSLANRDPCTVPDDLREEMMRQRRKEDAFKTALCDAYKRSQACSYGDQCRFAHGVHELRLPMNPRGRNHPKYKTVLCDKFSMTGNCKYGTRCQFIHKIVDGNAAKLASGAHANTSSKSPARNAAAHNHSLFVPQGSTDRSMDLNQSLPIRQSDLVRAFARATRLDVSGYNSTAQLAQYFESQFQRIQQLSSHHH

Cytochrome P450 2C19 = Cytochrome P450 2C19 (Homo sapiens, UniProt P33261); experiment: Cytochrome panel assay with activity outcomes. Panel member name: p450-cyp2c19 Compounds with AC50 equal or less than 10 uM are considered active; type: functional; conditions: read-out: AC50
[9] = biological target: T5, Rac GTPase-activating protein 1 (Homo sapiens, UniProt Q9H0H5); experiment: blockers of MgcRacGAP-driven Rac1 GTP hydrolysis – biochemical, ADP Hunter fluorescence, primary and confirmatory, confirmation (AID 624330); type: functional
T5 sequence (Q9H0H5 whole entry): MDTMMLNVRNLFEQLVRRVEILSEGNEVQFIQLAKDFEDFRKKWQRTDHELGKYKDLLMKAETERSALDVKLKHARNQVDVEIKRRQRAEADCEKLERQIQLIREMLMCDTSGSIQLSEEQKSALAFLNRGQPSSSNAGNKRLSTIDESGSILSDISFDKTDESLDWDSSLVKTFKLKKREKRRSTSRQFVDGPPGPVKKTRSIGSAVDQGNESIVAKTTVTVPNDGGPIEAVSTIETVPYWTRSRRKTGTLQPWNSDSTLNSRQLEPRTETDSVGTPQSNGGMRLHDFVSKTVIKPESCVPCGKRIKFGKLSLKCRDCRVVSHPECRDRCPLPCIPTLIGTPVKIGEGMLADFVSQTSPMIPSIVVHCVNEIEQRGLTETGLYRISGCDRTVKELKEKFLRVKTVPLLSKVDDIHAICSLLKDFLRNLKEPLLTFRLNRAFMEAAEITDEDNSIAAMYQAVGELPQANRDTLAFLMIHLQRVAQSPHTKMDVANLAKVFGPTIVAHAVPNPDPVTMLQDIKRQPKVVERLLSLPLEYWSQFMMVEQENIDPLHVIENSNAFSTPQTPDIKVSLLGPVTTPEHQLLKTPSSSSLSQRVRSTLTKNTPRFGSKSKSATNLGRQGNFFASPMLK

Cytochrome P450 2C9 = Cytochrome P450 2C9 (Homo sapiens, UniProt P11712)
[10] = Luminescence Cell-Based Dose Confirmation HTS to Identify Inhibitors of Platelet Dense Granule Release. [Related pubchem assays: 1663 (Primary HTS), 1678 (Summary of Project)]; type: functional
[11] = biological target: Luciferin 4-monooxygenase (Photinus pyralis, UniProt P08659); experiment: inhibition of purified Photinus pyralis luciferase – biochemical, luminescence, dose response (AID 1891)
[12] = NIH-3T3 fibroblast cytotoxicity, dose response, cytotoxicity control, cell-based, fluorescence, Alamar Blue, secondary assay (AID 2327); type: functional;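 note: NIH-3T3 mouse fibroblasts cultured with fluconazole at 8 µg/mL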
[13] = fluconazole-exposed Candida albicans growth modulators – fluorescence, retest, confirmation (AID 2467); type: functional, cell-based

T2 sequence (P11940 whole entry, the tested form may be a part): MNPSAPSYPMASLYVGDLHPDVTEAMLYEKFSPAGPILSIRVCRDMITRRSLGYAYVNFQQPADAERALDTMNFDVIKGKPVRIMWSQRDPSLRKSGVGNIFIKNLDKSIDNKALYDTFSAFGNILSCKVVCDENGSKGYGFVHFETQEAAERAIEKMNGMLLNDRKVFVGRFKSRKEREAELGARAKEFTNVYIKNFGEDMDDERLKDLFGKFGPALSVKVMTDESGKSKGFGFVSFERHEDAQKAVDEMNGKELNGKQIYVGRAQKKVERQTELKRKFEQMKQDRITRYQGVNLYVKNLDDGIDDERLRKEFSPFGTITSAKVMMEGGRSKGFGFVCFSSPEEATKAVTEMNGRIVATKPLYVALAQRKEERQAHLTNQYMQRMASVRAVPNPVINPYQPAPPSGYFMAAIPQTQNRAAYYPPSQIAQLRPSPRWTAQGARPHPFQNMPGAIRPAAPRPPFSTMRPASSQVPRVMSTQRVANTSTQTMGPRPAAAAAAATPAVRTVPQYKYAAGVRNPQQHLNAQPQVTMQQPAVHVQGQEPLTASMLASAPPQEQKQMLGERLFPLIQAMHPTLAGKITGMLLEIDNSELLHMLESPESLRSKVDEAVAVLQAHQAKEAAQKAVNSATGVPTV
Luciferin 4-monooxygenase, sequence (P08659 whole entry): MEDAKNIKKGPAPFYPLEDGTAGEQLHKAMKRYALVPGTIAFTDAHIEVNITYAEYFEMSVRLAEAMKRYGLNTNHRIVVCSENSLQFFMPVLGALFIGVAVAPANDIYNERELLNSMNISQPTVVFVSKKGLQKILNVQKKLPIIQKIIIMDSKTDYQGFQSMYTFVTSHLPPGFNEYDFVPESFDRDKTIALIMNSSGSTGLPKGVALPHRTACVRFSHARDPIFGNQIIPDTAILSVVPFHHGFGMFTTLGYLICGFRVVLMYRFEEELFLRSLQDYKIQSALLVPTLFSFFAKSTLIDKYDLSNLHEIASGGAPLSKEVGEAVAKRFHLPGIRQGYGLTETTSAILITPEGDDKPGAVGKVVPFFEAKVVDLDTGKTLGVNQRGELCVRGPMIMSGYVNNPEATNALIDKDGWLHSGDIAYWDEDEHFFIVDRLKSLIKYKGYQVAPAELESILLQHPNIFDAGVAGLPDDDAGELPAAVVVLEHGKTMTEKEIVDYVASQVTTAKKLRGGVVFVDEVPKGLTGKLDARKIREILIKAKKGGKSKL
Cytochrome P450 2C9, sequence (P11712 whole entry): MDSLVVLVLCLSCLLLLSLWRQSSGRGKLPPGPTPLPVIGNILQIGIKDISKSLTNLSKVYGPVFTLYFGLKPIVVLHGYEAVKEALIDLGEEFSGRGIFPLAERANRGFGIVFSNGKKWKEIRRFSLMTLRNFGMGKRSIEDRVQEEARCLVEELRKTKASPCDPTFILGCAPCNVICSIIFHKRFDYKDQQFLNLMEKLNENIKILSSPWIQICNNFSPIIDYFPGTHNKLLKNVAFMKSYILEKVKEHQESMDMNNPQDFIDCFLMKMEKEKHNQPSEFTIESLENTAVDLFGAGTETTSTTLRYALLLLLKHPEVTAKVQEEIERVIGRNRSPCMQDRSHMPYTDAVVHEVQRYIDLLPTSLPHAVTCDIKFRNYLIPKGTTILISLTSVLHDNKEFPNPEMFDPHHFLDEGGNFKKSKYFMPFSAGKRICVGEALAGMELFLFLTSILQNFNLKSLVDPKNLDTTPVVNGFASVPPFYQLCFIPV
Cytochrome P450 2C19, sequence (P33261 whole entry): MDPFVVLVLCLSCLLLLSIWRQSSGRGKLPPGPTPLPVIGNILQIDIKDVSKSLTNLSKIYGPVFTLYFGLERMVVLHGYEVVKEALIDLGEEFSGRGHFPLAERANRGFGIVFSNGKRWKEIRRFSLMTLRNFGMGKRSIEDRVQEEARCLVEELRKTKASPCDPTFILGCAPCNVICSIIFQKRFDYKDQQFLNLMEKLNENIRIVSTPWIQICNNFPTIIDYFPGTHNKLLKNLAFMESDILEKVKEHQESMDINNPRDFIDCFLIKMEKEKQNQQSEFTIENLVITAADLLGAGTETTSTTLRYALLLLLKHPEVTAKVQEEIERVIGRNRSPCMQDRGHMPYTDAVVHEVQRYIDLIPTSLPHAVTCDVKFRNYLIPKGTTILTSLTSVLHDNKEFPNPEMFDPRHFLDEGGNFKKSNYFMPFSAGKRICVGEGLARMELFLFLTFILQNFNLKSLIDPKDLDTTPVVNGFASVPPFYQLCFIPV

For Cc1cc(C)n2nc(N)c(N=Nc3cccc(Cl)c3)c2n1, the EC50 [1] was > 260 µM (inactive).
In the case of N#Cc1ccsc1NC(=O)CN1CCN(S(=O)(=O)c2ccc3ccccc3c2)CC1, the EC50 [1] was > 260 µM (inactive).
For CCOC(=O)c1c(NC(=O)c2nn(CC)cc2Br)c(C#N)nn1-c1ccccc1, the EC50 [2] was > 120 µM (not active), the EC50 [3] was > 120 µM (not active) and the EC50 [4] was 22.5 µM (active). The EC50 [1] was > 260 µM (inactive).
In the case of Cc1ccc([N+](=O)[O-])cc1S(=O)(=O)Nc1ccc(O)c(Sc2nc[nH]n2)c1, the IC50 [5] was > 66 µM (inactive), the IC50 [6] was > 66 µM (inactive) and the EC50 [7] was 9.83 µM (inconclusive). For the same molecule, the EC50 [8] was 9.8 µM (active).
In the case of COCCCNC(CC(=O)Nc1cc(C)cc(C)c1)C(=O)O (configuration not stated), the EC50 [7] was > 300 µM (not active) and the EC50 [8] was > 300 µM (not active).
With Cc1ccc(-n2[nH]c(=O)c3cccnc32)cc1 the AC50 (Cytochrome P450 2C19) was 25.1 µM (inconclusive), the IC50 [9] was 95.2 µM (active) and the AC50 (Cytochrome P450 2C9) was 28.2 µM (inconclusive).
In the case of CCOC(=O)c1c(N)sc(C(=O)Nc2ccc3c(c2)OCO3)c1C, the EC50 [10] was 3.34 µM (active) and the EC50 [11] was 1.28 µM (active).
With COc1cc2c(cc1OC)-c1cc(Nc3cccc(F)c3)nc(=O)n1CC2 the EC50 [10] was 1.08 µM (active) and the EC50 [11] was > 112 µM (not active).
With COC(=O)c1c(C)[nH]c(C(=O)OCC(=O)N2c3ccccc3NC(=O)C2(C)C)c1C the EC50 [10] was > 112 µM (not active) and the EC50 [11] was > 112 µM (not active).
In the case of O=C(NNC(=O)c1ccccc1O)c1cccc(Br)c1, the EC50 [7] was 25.6 µM (active) and the EC50 [8] was 41 µM (active).
With O=C(COC(=O)c1cnc(O)nc1O)Nc1ccccc1Br the EC50 [10] was > 112 µM (not active) and the EC50 [11] was > 112 µM (not active).
With Cc1occc1C(=O)O/N=C(\N)c1ccccc1 the EC50 [10] was 2.59 µM (active) and the EC50 [11] was 3.91 µM (active).
With CN(C)C1=NC(=O)/C(=C/c2ccc(-c3ccc(S(N)(=O)=O)cc3)o2)S1 the EC50 [7] was > 300 µM (not active) and the EC50 [8] was > 300 µM (not active).
With Nc1c(Cl)cc(NC(=O)c2ccccc2C(=O)O)cc1Br the IC50 [9] was 169 µM (active).
With CC1=CC2=C(OC1N(C)C)c1cccc3cccc(c13)C2=O (configuration not stated) the EC50 [12] was > 150 µM (inactive), the EC50 [13] was > 38 µM (not active) and the EC50 [1] was > 260 µM (inactive).
In the case of Cc1ccccc1-n1c(-c2ccc(Cl)cc2)cnc1SCC(=O)NC1CCS(=O)(=O)C1 (configuration not stated), the EC50 [1] was > 260 µM (inactive).
In the case of COc1ccc(OC(=O)COc2ccc(C)cc2)cc1, the IC50 [9] was 30 µM (active).
In the case of COCCN1CCN(C(=O)c2ccc3nc(Cc4ccccc4F)oc3c2)CC1, the EC50 [10] was > 112 µM (not active) and the EC50 [11] was > 112 µM (not active).
In the case of COc1cc(C)c(NC(c2ccccc2)c2ccccc2)cc1OC, the IC50 [9] was 113 µM (active).
With CN(c1ccc(C(=O)Nc2ccc3c(c2)OCO3)cc1)S(C)(=O)=O the EC50 [10] was 6 µM (active) and the EC50 [11] was 26.3 µM (active).
For Cc1ccc(NC(=O)COC(=O)[C@H](C)NC(=O)c2ccccc2)cc1S(=O)(=O)N1CCOCC1, the EC50 [10] was > 112 µM (not active) and the EC50 [11] was > 112 µM (not active).
With Cc1nc(/C=C2\C(=O)Nc3ccccc32)c[nH]1 the EC50 [7] was > 300 µM (not active) and the EC50 [8] was > 300 µM (not active).
For CC(C)c1ccc(/C=C(\NC(=O)c2ccccc2)C(=O)NCCN2CCOCC2)cc1, the EC50 [7] was > 300 µM (not active) and the EC50 [8] was > 300 µM (not active).
For Cc1cccc(C(=N)NOC(=O)c2ccc3c(c2)OCO3)c1, the EC50 [10] was 1.47 µM (active) and the EC50 [11] was 0.838 µM (active).
With CC(Oc1ccc(Cl)cc1Cl)C(=O)Nc1ccc(O)cc1 (configuration not stated) the IC50 [9] was 38.4 µM (active).
With CCc1nnc(NS(=O)(=O)c2ccc(NCc3ccccc3O)cc2)s1 the EC50 [10] was > 112 µM (not active) and the EC50 [11] was > 112 µM (not active).
With CCCc1n[nH]c2c1C(c1cc(OC)ccc1F)C(C#N)=C(N)O2 (configuration not stated) the EC50 [1] was > 260 µM (inactive).
For CCCCN(C)C(=O)C1CCC(CNS(=O)(=O)c2ccc3c(c2)CC(C)N3C(=O)C2CC2)CC1 (configuration not stated), the EC50 [1] was > 260 µM (inactive).
In the case of CN1C(=O)NC(=O)/C(=C/c2ccc[nH]2)C1=O, the EC50 [7] was > 300 µM (not active) and the EC50 [8] was > 300 µM (not active).
With CCN(CCNC(=O)CN1CCN(Cc2ccc(Cl)cc2)C1=O)c1ccccc1 the EC50 [1] was > 260 µM (inactive).
With CSCC(C)N1CCC(Oc2cccc(C(=O)NCc3ccccn3)c2)CC1 (configuration not stated) the IC50 [5] was 31.6 µM (inactive), the IC50 [6] was 34.1 µM (inactive) and the EC50 [7] was 75.4 µM (active). For the same molecule, the EC50 [8] was 34.9 µM (active).
In the case of CCCCN(C)C(=O)CCC(=O)NNc1nc2ccccc2c2nc(C)nn12, the EC50 [7] was 5.37 µM (active) and the EC50 [8] was > 300 µM (not active).
